Test results reported in ChEMBL document CHEMBL5576066, “Synthesis and evaluation of 3-hydroxyquinolin-2(1H)-one derivatives as inhibitors of tyrosinase” (Bioorg Med Chem Lett, 2024).

molecular target: T1, Mushroom tyrosinase (Agaricus bisporus, UniProt O42713+Q00024+C7FF04+C7FF05); assay: Inhibition of mushroom tyrosinase using L-DOPA as substrate by spectrophotometric analysis; type: protein assay

SMILES	IC50 [µM]
O=c1[nH]c2ccc(Br)cc2cc1O	2.52
Cc1ccc2cc(O)c(=O)[nH]c2c1	173
Cc1cc(C)c2cc(O)c(=O)[nH]c2c1	926
Cc1cc2cc(O)c(=O)[nH]c2cc1C	43.5
O=c1oc2ccccc2cc1O [3-HYDROXYCOUMARIN]	2.49

The next lines start with the values.

IC50 [µM]	SMILES
2.74	O=c1[nH]c2ccccc2cc1O
0.13	CC(C)C(=O)Nc1nc(-c2ccc(O)cc2O)cs1
6.11	Cc1ccc2[nH]c(=O)c(O)cc2c1
92.7	O=c1[nH]c2cccc(Cl)c2cc1O
3.57	O=c1[nH]c2ccc(F)cc2cc1O

molecular target: T2, Tyrosinase (Homo sapiens, UniProt P14679); assay: Inhibition of human tyrosinase
T2 sequence (P14679 whole entry): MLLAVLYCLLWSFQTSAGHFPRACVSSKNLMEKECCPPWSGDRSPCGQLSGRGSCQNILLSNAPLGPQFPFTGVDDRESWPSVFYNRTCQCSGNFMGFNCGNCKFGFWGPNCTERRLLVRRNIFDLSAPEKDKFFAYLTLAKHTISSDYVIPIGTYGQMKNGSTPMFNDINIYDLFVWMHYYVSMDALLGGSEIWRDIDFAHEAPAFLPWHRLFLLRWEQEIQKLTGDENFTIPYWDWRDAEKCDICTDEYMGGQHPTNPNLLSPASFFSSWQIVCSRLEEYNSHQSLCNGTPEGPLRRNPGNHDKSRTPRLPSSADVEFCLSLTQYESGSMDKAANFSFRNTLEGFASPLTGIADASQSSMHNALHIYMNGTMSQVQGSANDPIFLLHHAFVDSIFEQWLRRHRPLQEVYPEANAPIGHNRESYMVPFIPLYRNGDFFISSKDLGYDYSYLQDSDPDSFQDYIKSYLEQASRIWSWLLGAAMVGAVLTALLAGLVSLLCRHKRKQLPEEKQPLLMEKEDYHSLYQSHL

IC50 [µM]	SMILES
26	O=c1oc2ccccc2cc1O [3-HYDROXYCOUMARIN]

molecular target: T1, Mushroom tyrosinase; assay: Competitive inhibition of mushroom tyrosinase using L-DOPA as substrate assessed as inhibition constant by Lineweaver-Burk plots analysis; type: protein assay

Ki [µM]	SMILES
1.41	Cc1ccc2[nH]c(=O)c(O)cc2c1
